# Source: paper PMC12858467, “In vitro toxicokinetics and metabolic profiling of methoxycathinones and methylthiocathinones using human liver systems and hyphenated mass spectrometry” (Archives of Toxicology, 2025)
# Experiments:
# Type in all cases: in vitro ADME
# Settings in all cases: substrate 4MeO-NE-BP 25 µM, 30 min, 37 °C; Table S3.1
# [1] = molecular target: T1, CYP1A2 (Homo sapiens, UniProt P05177); assay: Monooxygenases activity screening, CYP1A2; set-up: key: +, detected; -, not detected
# T1 construct: purchased Discovery Life Sciences (Huntsville, LA, USA); host or cells: baculovirus-infected insect cells (microsomes, Supersomes)
# T1 sequence (P05177 1-516): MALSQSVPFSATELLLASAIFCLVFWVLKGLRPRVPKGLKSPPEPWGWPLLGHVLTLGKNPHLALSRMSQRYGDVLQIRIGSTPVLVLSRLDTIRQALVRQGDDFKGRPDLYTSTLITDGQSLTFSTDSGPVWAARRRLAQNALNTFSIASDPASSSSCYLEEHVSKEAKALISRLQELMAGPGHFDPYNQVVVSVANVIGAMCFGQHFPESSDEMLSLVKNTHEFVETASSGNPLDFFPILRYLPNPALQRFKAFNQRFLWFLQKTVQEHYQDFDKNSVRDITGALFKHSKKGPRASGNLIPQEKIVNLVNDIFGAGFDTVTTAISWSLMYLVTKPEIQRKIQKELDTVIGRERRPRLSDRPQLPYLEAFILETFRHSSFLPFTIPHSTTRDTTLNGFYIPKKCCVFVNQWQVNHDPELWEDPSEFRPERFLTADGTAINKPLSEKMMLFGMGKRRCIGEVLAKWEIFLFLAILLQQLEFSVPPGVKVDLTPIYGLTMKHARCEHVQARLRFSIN
# Protocol: (§1) For incubations with CYP2A6 or CYP2C9, phosphate buffer was replaced with 90 mM Tris buffer, according to the manufacturer’s guideline. […] All incubations were done in duplicate and concentrations were fixed. Verapamil (25 µM) was incubated as a positive control.
# [2] = molecular target: T2, CYP2B6 (Homo sapiens, UniProt P20813); assay: Monooxygenases activity screening, CYP2B6; set-up: key: +, detected; -, not detected
# T2 construct: purchased Discovery Life Sciences (Huntsville, LA, USA); host or cells: baculovirus-infected insect cells (microsomes, Supersomes)
# T2 sequence (P20813 1-491): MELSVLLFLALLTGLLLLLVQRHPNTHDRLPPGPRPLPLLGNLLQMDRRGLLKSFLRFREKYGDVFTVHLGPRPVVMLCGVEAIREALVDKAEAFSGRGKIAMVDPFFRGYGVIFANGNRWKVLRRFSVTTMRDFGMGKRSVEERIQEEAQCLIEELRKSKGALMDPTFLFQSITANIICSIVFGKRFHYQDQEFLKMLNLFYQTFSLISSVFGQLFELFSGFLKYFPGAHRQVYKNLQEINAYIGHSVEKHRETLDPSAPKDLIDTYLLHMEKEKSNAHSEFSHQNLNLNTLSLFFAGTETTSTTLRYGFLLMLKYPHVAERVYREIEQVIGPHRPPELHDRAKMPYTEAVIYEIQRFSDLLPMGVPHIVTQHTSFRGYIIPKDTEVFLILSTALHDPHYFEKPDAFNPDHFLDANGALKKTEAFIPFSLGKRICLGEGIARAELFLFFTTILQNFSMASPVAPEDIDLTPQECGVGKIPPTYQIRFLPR
# Protocol: as §1
# [3] = molecular target: T3, CYP2C9 (Homo sapiens, UniProt P11712); assay: Monooxygenases activity screening, CYP2C9; set-up: key: +, detected; -, not detected
# T3 construct: purchased Discovery Life Sciences (Huntsville, LA, USA); host or cells: baculovirus-infected insect cells (microsomes, Supersomes)
# T3 sequence (P11712 whole entry): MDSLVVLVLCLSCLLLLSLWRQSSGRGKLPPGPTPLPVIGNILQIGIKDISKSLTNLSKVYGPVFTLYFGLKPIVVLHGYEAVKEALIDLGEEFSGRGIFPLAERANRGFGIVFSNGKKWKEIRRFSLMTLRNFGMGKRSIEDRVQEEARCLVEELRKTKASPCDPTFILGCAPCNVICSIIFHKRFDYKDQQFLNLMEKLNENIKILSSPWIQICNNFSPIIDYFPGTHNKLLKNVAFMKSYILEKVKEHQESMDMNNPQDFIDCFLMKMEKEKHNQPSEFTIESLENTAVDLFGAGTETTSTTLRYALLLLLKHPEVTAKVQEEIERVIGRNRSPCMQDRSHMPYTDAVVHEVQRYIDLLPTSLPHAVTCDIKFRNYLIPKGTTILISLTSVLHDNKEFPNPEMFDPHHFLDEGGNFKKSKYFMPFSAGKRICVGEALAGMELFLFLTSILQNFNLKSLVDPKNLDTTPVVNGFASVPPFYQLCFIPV
# Protocol: as §1
# [4] = molecular target: T4, CYP3A4 (Homo sapiens, UniProt P08684); assay: Monooxygenases activity screening, CYP3A4; set-up: key: +, detected; -, not detected
# T4 construct: purchased Discovery Life Sciences (Huntsville, LA, USA); host or cells: baculovirus-infected insect cells (microsomes, Supersomes)
# T4 sequence (P08684 whole entry): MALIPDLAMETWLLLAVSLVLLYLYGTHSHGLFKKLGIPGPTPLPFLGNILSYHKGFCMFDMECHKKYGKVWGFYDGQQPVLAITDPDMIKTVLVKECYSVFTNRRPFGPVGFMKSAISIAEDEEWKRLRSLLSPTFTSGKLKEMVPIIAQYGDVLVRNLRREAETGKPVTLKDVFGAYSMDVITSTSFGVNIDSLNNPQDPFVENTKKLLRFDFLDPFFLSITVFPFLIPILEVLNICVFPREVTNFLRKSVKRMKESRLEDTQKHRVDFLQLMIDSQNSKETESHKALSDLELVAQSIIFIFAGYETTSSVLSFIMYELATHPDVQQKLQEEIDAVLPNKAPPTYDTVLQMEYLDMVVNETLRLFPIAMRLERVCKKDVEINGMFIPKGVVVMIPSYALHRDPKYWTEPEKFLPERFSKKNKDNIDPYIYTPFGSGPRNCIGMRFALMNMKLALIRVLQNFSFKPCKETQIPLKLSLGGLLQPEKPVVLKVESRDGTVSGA
# Protocol: as §1
# [5] = molecular target: T5, CYP2E1 (Homo sapiens, UniProt P05181); assay: Monooxygenases activity screening, CYP2E1; set-up: key: +, detected; -, not detected
# T5 construct: purchased Discovery Life Sciences (Huntsville, LA, USA); host or cells: baculovirus-infected insect cells (microsomes, Supersomes)
# T5 sequence (P05181 whole entry): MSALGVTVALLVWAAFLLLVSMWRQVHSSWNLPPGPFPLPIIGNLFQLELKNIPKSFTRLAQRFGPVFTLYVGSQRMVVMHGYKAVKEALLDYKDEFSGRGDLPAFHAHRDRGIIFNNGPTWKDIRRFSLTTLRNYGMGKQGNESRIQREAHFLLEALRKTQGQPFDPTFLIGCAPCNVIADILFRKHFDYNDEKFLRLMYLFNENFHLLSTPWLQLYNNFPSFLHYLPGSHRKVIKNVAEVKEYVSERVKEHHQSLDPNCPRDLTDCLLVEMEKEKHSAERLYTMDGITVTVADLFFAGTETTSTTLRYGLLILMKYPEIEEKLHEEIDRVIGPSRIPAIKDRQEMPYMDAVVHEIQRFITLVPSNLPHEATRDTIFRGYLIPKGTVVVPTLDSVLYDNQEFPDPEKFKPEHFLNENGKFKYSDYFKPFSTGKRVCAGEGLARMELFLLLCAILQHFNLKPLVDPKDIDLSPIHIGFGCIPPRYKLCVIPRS
# Protocol: as §1
# [6] = molecular target: T6, CYP3A5 (Homo sapiens, UniProt P20815); assay: Monooxygenases activity screening, CYP3A5; set-up: key: +, detected; -, not detected
# T6 construct: purchased Discovery Life Sciences (Huntsville, LA, USA); host or cells: baculovirus-infected insect cells (microsomes, Supersomes)
# T6 sequence (P20815 whole entry): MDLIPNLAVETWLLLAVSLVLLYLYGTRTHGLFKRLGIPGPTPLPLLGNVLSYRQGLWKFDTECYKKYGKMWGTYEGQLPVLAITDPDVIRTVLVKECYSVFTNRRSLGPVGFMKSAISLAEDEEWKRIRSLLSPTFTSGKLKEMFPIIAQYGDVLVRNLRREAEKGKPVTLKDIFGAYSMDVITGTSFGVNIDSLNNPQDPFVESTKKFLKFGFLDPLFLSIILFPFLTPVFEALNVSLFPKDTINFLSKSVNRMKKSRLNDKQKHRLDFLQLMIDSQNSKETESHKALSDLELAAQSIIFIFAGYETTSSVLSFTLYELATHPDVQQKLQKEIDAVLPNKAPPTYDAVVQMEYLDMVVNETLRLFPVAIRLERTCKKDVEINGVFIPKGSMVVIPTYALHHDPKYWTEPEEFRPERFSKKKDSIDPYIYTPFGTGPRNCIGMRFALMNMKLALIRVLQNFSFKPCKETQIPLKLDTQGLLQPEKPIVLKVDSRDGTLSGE
# Protocol: as §1
# [7] = molecular target: T7, CYP2C8 (Homo sapiens, UniProt P10632); assay: Monooxygenases activity screening, CYP2C8; set-up: key: +, detected; -, not detected
# T7 construct: purchased Discovery Life Sciences (Huntsville, LA, USA); host or cells: baculovirus-infected insect cells (microsomes, Supersomes)
# T7 sequence (P10632 1-490): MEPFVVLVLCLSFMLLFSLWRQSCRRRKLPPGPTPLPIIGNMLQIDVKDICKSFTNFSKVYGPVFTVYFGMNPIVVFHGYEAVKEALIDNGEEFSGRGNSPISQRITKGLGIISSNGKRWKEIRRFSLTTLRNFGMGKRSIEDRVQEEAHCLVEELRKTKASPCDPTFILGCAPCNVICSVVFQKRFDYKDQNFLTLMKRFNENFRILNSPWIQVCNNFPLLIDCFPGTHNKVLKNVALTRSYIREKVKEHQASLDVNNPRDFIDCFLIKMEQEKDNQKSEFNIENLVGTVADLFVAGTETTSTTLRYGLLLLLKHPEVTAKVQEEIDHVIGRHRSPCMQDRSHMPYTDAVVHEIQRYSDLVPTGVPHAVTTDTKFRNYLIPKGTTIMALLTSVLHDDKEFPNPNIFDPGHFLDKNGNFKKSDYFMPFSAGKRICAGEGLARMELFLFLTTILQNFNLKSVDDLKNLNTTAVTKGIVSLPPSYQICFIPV
# Protocol: as §1
# [8] = molecular target: T8, CYP2A6 (Homo sapiens, UniProt P11509); assay: Monooxygenases activity screening, CYP2A6; set-up: key: +, detected; -, not detected
# T8 construct: purchased Discovery Life Sciences (Huntsville, LA, USA); host or cells: baculovirus-infected insect cells (microsomes, Supersomes)
# T8 sequence (P11509 1-494): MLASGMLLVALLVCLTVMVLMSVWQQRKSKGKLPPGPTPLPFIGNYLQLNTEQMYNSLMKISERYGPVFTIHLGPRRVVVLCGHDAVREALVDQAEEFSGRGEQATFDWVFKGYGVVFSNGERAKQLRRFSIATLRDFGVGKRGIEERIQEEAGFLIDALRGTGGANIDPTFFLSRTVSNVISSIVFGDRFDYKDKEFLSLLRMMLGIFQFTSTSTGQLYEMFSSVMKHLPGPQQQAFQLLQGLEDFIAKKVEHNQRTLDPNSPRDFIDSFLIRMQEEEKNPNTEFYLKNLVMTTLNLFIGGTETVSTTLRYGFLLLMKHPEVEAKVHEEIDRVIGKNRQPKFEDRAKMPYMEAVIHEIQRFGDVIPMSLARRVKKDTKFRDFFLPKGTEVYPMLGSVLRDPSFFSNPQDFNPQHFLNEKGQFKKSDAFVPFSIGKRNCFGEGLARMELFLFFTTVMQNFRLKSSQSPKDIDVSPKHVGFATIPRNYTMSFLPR
# Protocol: as §1
# [9] = molecular target: T9, flavin-containing monooxygenase 3 (FMO3) (Homo sapiens, UniProt P31513); assay: Monooxygenases activity screening, FMO3; set-up: key: +, detected; -, not detected
# T9 construct: purchased Discovery Life Sciences (Huntsville, LA, USA); host or cells: baculovirus-infected insect cells (microsomes, Supersomes)
# T9 sequence (P31513 1-532): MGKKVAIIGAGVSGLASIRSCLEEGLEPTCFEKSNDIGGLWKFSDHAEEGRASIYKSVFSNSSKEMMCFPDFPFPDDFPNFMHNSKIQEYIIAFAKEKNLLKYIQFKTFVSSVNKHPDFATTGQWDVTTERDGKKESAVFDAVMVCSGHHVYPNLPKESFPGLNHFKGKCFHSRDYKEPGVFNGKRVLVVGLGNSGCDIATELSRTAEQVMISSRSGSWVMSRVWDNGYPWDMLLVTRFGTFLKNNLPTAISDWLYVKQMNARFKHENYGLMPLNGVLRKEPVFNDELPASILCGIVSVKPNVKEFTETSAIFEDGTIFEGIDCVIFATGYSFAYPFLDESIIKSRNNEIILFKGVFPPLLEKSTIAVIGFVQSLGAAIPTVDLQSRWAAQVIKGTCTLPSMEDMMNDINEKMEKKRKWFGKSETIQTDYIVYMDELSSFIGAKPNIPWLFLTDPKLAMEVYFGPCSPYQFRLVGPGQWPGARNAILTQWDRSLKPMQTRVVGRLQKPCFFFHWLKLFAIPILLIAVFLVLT
# Protocol: as §1
# [10] = molecular target: T10, CYP2C19 (Homo sapiens, UniProt P33261); assay: Monooxygenases activity screening, CYP2C19; set-up: key: +, detected; -, not detected
# T10 construct: purchased Discovery Life Sciences (Huntsville, LA, USA); host or cells: baculovirus-infected insect cells (microsomes, Supersomes)
# T10 sequence (P33261 whole entry): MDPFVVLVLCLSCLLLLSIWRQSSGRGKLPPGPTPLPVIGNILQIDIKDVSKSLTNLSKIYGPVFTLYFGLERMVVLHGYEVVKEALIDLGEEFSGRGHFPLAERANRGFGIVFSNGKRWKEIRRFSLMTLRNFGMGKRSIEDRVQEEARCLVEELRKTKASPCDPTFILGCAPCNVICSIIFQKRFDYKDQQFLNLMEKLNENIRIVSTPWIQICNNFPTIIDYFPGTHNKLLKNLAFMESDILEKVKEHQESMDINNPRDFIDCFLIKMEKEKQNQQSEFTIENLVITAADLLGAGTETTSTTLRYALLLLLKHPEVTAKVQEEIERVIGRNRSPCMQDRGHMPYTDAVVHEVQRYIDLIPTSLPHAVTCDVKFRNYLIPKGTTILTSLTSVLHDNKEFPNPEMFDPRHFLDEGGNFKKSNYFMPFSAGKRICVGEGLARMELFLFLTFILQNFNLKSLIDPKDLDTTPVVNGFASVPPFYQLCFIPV
# Protocol: as §1
# [11] = molecular target: T11, CYP2D6 (Homo sapiens, UniProt P10635); assay: Monooxygenases activity screening, CYP2D6; set-up: key to one-step metabolite detected in CYP2D6 incubation: +, detected; -, not detected
# T11 construct: purchased Discovery Life Sciences (Huntsville, LA, USA); host or cells: baculovirus-infected insect cells (microsomes, Supersomes)
# T11 sequence (P10635 whole entry): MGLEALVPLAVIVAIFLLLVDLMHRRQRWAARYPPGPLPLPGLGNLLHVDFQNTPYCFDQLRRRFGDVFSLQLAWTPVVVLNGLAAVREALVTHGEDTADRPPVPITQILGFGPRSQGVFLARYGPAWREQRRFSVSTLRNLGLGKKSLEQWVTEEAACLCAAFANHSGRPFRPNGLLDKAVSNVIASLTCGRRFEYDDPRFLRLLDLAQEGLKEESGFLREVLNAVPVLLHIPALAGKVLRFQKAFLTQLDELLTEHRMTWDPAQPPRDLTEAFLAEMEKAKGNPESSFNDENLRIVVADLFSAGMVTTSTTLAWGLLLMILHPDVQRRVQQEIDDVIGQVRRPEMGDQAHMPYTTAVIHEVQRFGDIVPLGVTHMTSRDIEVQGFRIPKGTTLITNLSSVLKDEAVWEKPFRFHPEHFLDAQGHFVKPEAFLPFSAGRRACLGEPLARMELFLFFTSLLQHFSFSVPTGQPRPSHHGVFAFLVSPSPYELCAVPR
# Protocol: as §1
SMILES,one-step metabolite detected in CYP1A2 incubation [1],one-step metabolite detected in CYP2B6 incubation [2],one-step metabolite detected in CYP2C9 incubation [3],one-step metabolite detected in CYP3A4 incubation [4],one-step metabolite detected in CYP2E1 incubation [5],one-step metabolite detected in CYP3A5 incubation [6],one-step metabolite detected in CYP2C8 incubation [7],one-step metabolite detected in CYP2A6 incubation [8],one-step metabolite detected in FMO3 incubation [9],one-step metabolite detected in CYP2C19 incubation [10],one-step metabolite detected in CYP2D6 incubation [11]
CCNC(CC)C(=O)c1ccc(O)cc1 (stereo not drawn) [MO1.1],+,-,-,-,-,-,-,-,-,+,+
CCC(N)C(=O)c1ccc(OC)cc1 (stereo not drawn) [MO1.3],-,+,-,+,-,-,-,-,-,+,-
CCC(C(=O)c1ccc(OC)cc1)N(O)CC (stereo not drawn) [MO1.4],+,+,-,+,-,+,+,-,+,+,+
